Converted amounts (≈) assume the structure as drawn. Where two headings read alike, the source gives them in different places.
Experiments:
[1] = test system: S. aureus NRS70; test: MIC, broth microdilution, S. aureus NRS70; type: cell-based, Staphylococcus aureus; conditions: for MIC: Staphylococcus aureus; for In vitro AB activity (MIC): Table 2.1, S. aureus NRS70
Description: (§1) MICs were evaluated following the CLSI microdilution method in BBL™ Mueller-Hinton II broth (Wikler et al., Clinical Laboratory Standards Institute Document M7-A7, 29 (2009)). Briefly, two-fold serial dilutions of compound were prepared in triplicate in 96-well plates and inoculated with 5×10^5 cfu/mL of the bacterial suspension. Plates were incubated at 37° C. for 16-20 hours.

[2] = test system: S. aureus NRS123; test: MIC, broth microdilution, S. aureus NRS123; type: cell-based; conditions: Staphylococcus aureus
Description: as §1

[3] = test system: S. aureus (ATCC 29213); test: Macromolecular synthesis assays; type: cell-based, Staphylococcus aureus; conditions: Staphylococcus aureus, ATCC29213; positive control, 16 μg/mL; read-out: Inhibition of cell-wall (peptidoglycan) biosynthesis
Text: Mechanism of Action of the Quinazolinones. The mode of action of 2 was investigated by macromolecular synthesis assays in S. aureus in the logarithmic phase, which monitor incorporation of radiolabeled precursors [methyl-^3H]-thymidine, [5-^3H]-uridine, L-[4,5-^3H]-leucine, or D-[2,3-^3H]-alanine into DNA, RNA, protein, or cell wall (peptidoglycan), respectively. Inhibition of radiolabeled precursor incorporation by 2 at a concentration of half the MIC was compared with those of known inhibitors of each pathway (ciprofloxacin, rifampicin, tetracycline, and fosfomycin, respectively).
The mode of action of 2 was investigated by macromolecular synthesis assays in S. aureus in the logarithmic phase (Miller, A A et al. Antimicrob. Agents Chemother. 52, 2806-12 (2008)), which monitor incorporation of radiolabeled precursors [methyl-^3H]-thymidine, [5-^3H]-uridine, L-[4,5-^3H]-leucine, or D-[2,3-^3H]-alanine into DNA, RNA, protein, or cell wall (peptidoglycan), respectively.
The incorporation of radiolabeled precursors—[methyl-^3H]-thymidine, [5-^3H]-uridine, L-[4,5-^3H]-leucine, or D-[2,3-^3H]-alanine—into DNA, RNA, protein, or peptidoglycan, respectively, in logarithmically growing S. aureus (ATCC 29213) was measured using a previously published method, with aliquots taken every 20 min over a 120-min incubation period (Wilson et al., Antimicrob. Agents Chemother. 39, 1925-33 (1995)).

[4] = test system: S. aureus NRS100; test: MIC, CLSI broth microdilution, S. aureus NRS100; type: cell-based, Staphylococcus aureus; conditions: for MIC: Staphylococcus aureus; for In vitro AB activity (MIC): Table 2.1, S. aureus NRS100
Description: as §1

[5] = test system: S. aureus NRS128; test: MIC, CLSI broth microdilution, S. aureus NRS128; type: cell-based, Staphylococcus aureus; conditions: Table 2.1, S. aureus NRS128
Description: as §1

[6] = test system: S. aureus VRS2; test: MIC, CLSI broth microdilution, S. aureus VRS2; type: cell-based, Staphylococcus aureus; conditions: for MIC: Staphylococcus aureus; for In vitro AB activity (MIC): Table 2.1, S. aureus VRS2
Description: as §1

[7] = test system: S. aureus ATCC 29213 (MSSA); test: MIC, CLSI broth microdilution, S. aureus ATCC 29213; type: cell-based, Staphylococcus aureus; conditions: Table 2.1, S. aureus ATCC 29213
Description: as §1

[8] = test system: S. epidermidis ATCC 35547; test: MIC, CLSI broth microdilution, S. epidermidis ATCC 35547; type: cell-based; conditions: for MIC: Staphylococcus epidermidis, ATCC35547; for In vitro AB activity (MIC): Table 2.1, S. epidermidis ATCC 35547
Description: as §1

[9] = test system: S. aureus NRS119; test: MIC, CLSI broth microdilution, S. aureus NRS119; type: cell-based, Staphylococcus aureus; conditions: for MIC: Staphylococcus aureus; for In vitro AB activity (MIC): Table 2.1, S. aureus NRS119
Description: as §1

[10] = test system: S. aureus NRS120; test: MIC, CLSI broth microdilution, S. aureus NRS120; type: cell-based, Staphylococcus aureus; conditions: for MIC: Staphylococcus aureus; for In vitro AB activity (MIC): Table 2.1, S. aureus NRS120
Description: as §1

[11] = test system: S. aureus VRS1; test: MIC, CLSI broth microdilution, S. aureus VRS1; type: cell-based, Staphylococcus aureus; conditions: for MIC: Staphylococcus aureus; for In vitro AB activity (MIC): Table 2.1, S. aureus VRS1
Description: as §1

[12] = test system: S. haemolyticus ATCC 29970; test: MIC, CLSI broth microdilution, S. haemolyticus ATCC 29970; type: cell-based; conditions: for MIC: Staphylococcus haemolyticus, ATCC29970; for In vitro AB activity (MIC): Table 2.1, S. haemolyticus ATCC 29970
Description: as §1

[13] = NRS70, Table 3, single agent, read-out: MIC NRS70
[14] = NRS123, Table 3, single agent, read-out: MIC NRS123
[15] = Table 2, S. aureus NRS100, read-out: MIC
[16] = Table 2, S. aureus NRS70, read-out: MIC
[17] = Table 2, S. aureus VRS2, read-out: MIC
[18] = Table 2, S. aureus NRS123, read-out: MIC
[19] = Table 2, S. aureus NRS119, read-out: MIC
[20] = Table 2, S. aureus NRS120, read-out: MIC
[21] = Table 2, S. aureus VRS1, read-out: MIC
[22] = Table 2, S. haemolyticus ATCC 29970, read-out: MIC

| Structure (SMILES) | MIC [1, 13] | MIC [2, 14] | MIC [4, 15] | In vitro AB activity (MIC) [4] | In vitro AB activity (MIC) [5] | MIC [1, 16] | In vitro AB activity (MIC) [1] | MIC [6, 17] | In vitro AB activity (MIC) [6] | In vitro AB activity (MIC) [7] | MIC [2, 18] | In vitro AB activity (MIC) [8] | MIC [9, 19] | In vitro AB activity (MIC) [9] | MIC [10, 20] | In vitro AB activity (MIC) [10] | MIC [11, 21] | In vitro AB activity (MIC) [11] | MIC [12, 22] | In vitro AB activity (MIC) [12] | also measured |
| --- | --- | --- | --- | --- | --- | --- | --- | --- | --- | --- | --- | --- | --- | --- | --- | --- | --- | --- | --- | --- | --- |
| CO/N=C(\C(=O)N[C@@H]1C(=O)N2C(C(=O)[O-])=C(C[N+]3(C)CCCC3)CS[C@H]12)c1csc(N)n1 [cefepime] | 64 µg/mL (≈ 133 µM) | 32 µg/mL (≈ 66.6 µM) |  |  |  |  |  |  |  |  |  |  |  |  |  |  |  |  |  |  |  |
| C[C@@H]1O[C@@H]1P(=O)(O)O [fosfomycin, reference compound] |  |  |  |  |  |  |  |  |  |  |  |  |  |  |  |  |  |  |  |  | inhibition at 16 µg/mL [3]: 64 ± 8% |
| CC(=O)NC[C@H]1CN(c2ccc(N3CCOCC3)c(F)c2)C(=O)O1 [linezolid] |  |  | 2 µg/mL (≈ 5.93 µM) | 2 µg/mL | 1 µg/mL | 1 µg/mL (≈ 2.96 µM) | 1 µg/mL | 1 µg/mL (≈ 2.96 µM) | 2 µg/mL | 4 µg/mL | 2 µg/mL (≈ 5.93 µM) | 1 µg/mL | 64 µg/mL (≈ 190 µM) | 32 µg/mL | 64 µg/mL (≈ 190 µM) | 32 µg/mL | 2 µg/mL (≈ 5.93 µM) | 2 µg/mL | 1 µg/mL (≈ 2.96 µM) | 2 µg/mL | MIC ([8]; Table 2, S. epidermidis ATCC 35547, read-out: MIC): 1 µg/mL (≈ 2.96 µM) |
| Cc1onc(-c2ccccc2)c1C(=O)N[C@@H]1C(=O)N2[C@@H]1SC(C)(C)[C@@H]2C(=O)O [oxacillin] | 64 µg/mL (≈ 159 µM) | 32 µg/mL (≈ 79.7 µM) | 512 µg/mL (≈ 1280 µM) | 512 µg/mL | 0.5 µg/mL | 32 µg/mL (≈ 79.7 µM) | 32 µg/mL | 256 µg/mL (≈ 638 µM) | 256 µg/mL | 0.25 µg/mL | 32 µg/mL (≈ 79.7 µM) |  | 512 µg/mL (≈ 1280 µM) | 512 µg/mL | 512 µg/mL (≈ 1280 µM) | 512 µg/mL | 512 µg/mL (≈ 1280 µM) | 512 µg/mL | 0.25 µg/mL (≈ 0.623 µM) | 0.25 µg/mL |  |
| CN[C@H](CC(C)C)C(=O)N[C@H]1C(=O)N[C@@H](CC(N)=O)C(=O)N[C@H]2C(=O)N[C@H]3C(=O)N[C@H](C(=O)N[C@H](C(=O)O)c4cc(O)cc(O)c4-c4cc3ccc4O)[C@H](O)c3ccc(c(Cl)c3)Oc3cc2cc(c3O[C@@H]2O[C@H](CO)[C@@H](O)[C@H](O)[C@H]2O[C@H]2C[C@](C)(N)[C@H](O)[C@H](C)O2)Oc2ccc(cc2Cl)[C@H]1O [vancomycin] |  |  |  | 2 µg/mL | 1 µg/mL |  | 1 µg/mL |  | 64 µg/mL | 1 µg/mL |  | 16 µg/mL |  | 2 µg/mL |  | 2 µg/mL |  | 512 µg/mL |  | 2 µg/mL | MIC ([4]; NRS100): 2 µg/mL (≈ 1.38 µM); MIC ([1]; NRS70): 1 µg/mL (≈ 0.69 µM); MIC ([6]; VRS2): 64 µg/mL (≈ 44.2 µM); MIC ([2]; NRS123): 1 µg/mL (≈ 0.69 µM); MIC [8]: 64 µg/mL (≈ 44.2 µM); MIC ([9]; NRS119): 2 µg/mL (≈ 1.38 µM); MIC ([10]; NRS120): 2 µg/mL (≈ 1.38 µM); MIC ([11]; VRS1): > 256 µg/mL; MIC [12]: 2 µg/mL (≈ 1.38 µM) |

From patent US10329262B2, “Quinazolinone antibiotics” (priority 2013, dated 2019)
